According to patent US20170035894A1, “DRUG DELIVERY CONJUGATES FOR TREATING RESISTANT CANCER AND FOR USE IN COMBINATION THERAPY” (ENDOCYTE, INC., priority 2014, published 2017):

Key:
[1] = tested on: ST024 tumors; assay: Ovarian PDX tumor model; format: in vivo, Balb/c nu/nu mice; settings: combined with Paclitaxel 15 mg/kg
Description: Female Balb/c nu/nu mice were fed ad libitum with folate-deficient chow (Harlan diet #TD01013) for the duration of the experiment. Primary human Endometrial model ST040, TNBC models 5T502 and ST738 and Ovarian model ST024 fragments (2-4 mm in diameter) were inoculated subcutaneously at the right flank of each mouse. Mice were randomized into 6 experimental groups of 5 or 3 mice each and test articles were injected through the lateral tail vein under sterile conditions in a volume of 200 μL of phosphate-buffered saline (PBS).
Growth of each s.c. tumor was followed by measuring the tumor two times per week until a volume of 1200 mm^3 was reached. Tumors were measured in two perpendicular directions using Vernier calipers, and their volumes were calculated as 0.5×L×W^2, where L=measurement of longest axis in mm and W=measurement of axis perpendicular to L in mm.

[2] = tested on: KB tumors; assay: Inhibition of tumor growth, s.c. KB tumors; format: in vivo, nu/nu mice; design: key to In vivo activity (e): CR=complete response, where tumor volume, as defined herein, during the observation period was zero for all test animals in the group; settings: for CR (%) / Cures (%) / PR (%): TIW
Description: METHOD. Inhibition of Tumor Growth in Mice. Four to seven week-old mice (Balb/c or nu/nu strains) were purchased from Harlan Sprague Dawley, Inc. (Indianapolis, Ind.). Normal rodent chow contains a high concentration of folic acid (6 mg/kg chow); accordingly, test animals were maintained on a folate-free diet (Harlan diet #TD00434) for about 1 week before tumor implantation to achieve serum folate concentrations close to the range of normal human serum, and during the Method. For tumor cell inoculation, 1×10^6 M109 cells (a syngeneic lung carcinoma) in Balb/c strain, or 1×10^6 KB cells in nu/nu strain, in 100 μL were injected in the subcutis of the dorsal medial area (right axilla). Tumors were measured in two perpendicular directions every 2-3 days using a caliper, and their volumes were calculated as 0.5×L×W^2, where L=measurement of longest axis in mm and W=measurement of axis perpendicular to L in mm.
Dosing solutions were prepared fresh each day in PBS and administered through the lateral tail vein of the mice.
Tumor implantation. KB tumor cells were grown in folate-deficient RPMI 1640 with 5% FBS at 37° C. in a 5% CO2 humidified atmosphere. KB (1×10^6 cells per animal) tumor cells were inoculated subcutaneously […] post start of the folate deficient diet. Mice were dosed after the tumors reached between 100-150 mm3.
Preparation of dosing drug solutions. Dosing solutions were prepared when dosing began by weighing appropriate amounts of each compound, reconstituting in PBS, pH 7.4, sterile filtering the drug solution through a 0.22 µm PVDF syringe filter, and freezing aliquots for each day of dosing at −20° C.
Evaluation. Tumor size was monitored and body weight measured 3 times/week. Attention was given to gross animal morphology and behavior. Euthanasia was performed if the mice lost >20% of weight or when the tumors reached a size of 1500 mm3. Euthanasia was also performed at the researcher's discretion if mice lost a lot of weight in a short duration or when mice were approaching moribund conditions. Blood samples were collected by cardiac puncture from all viable animals from selected cohorts. Heart, lungs, liver, spleen, kidney, intestines, bone, brain and muscle were obtained immediately after euthanasia. The tissues were removed and stored in 10% neutral-buffered formalin.
For example, a 50% decrease in tumor volume from the initial measurement represents a partial response.
For example, a decrease in tumor volume where the measurements in two perpendicular directions are each about 2 mm or less represents a complete response.

[3] = Maximum tolerated dose (MTD); format: in vivo, female Sprague-Dawley rats
Description: Maximum tolerated dose (MTD). […] Test compounds were administered by i.v., BIW, 2 wks in female Sprague-Dawley rats. […] Histopathologic changes were not observed with doses of EC1456 at or below the MTD.

SMILES: CCCC(=O)OCN(C(=O)[C@@H](NC(=O)[C@H]1CCCCN1C)C(C)CC)[C@H](C[C@@H](OC(C)=O)c1nc(C(=O)N[C@@H](Cc2ccc(O)cc2)C[C@H](C)C(=O)NNC(=O)OCCSSC[C@@H](NC(=O)[C@H](CCC(=O)NC[C@H](O)[C@@H](O)[C@H](O)[C@H](O)CO)NC(=O)[C@@H](CCC(=O)O)NC(=O)[C@H](CCC(=O)NC[C@H](O)[C@@H](O)[C@H](O)[C@H](O)CO)NC(=O)[C@@H](CCC(=O)O)NC(=O)[C@H](CCC(=O)NC[C@H](O)[C@@H](O)[C@H](O)[C@H](O)CO)NC(=O)CC[C@@H](NC(=O)c2ccc(NCc3cnc4nc(N)[nH]c(=O)c4n3)cc2)C(=O)O)C(=O)O)cs1)C(C)C (stereo in doubt) [EC1456]
- animals exhibiting cures ([1]; EC1456 2 μmol/kg two times a week for two weeks): 100%
- animals exhibiting cures ([1]; EC1456 4 μmol/kg once a week for two weeks): 100%
- CR (%) ([2]; 0.5 μmol/kg, 3 weeks): 0%
- Cures (%) ([2]; 0.5 μmol/kg, 3 weeks): 0%
- PR (%) ([2]; 0.5 μmol/kg, 3 weeks): 60%
- CR (%) ([2]; 0.67 μmol/kg, 2 weeks): 20%
- Cures (%) ([2]; 0.67 μmol/kg, 2 weeks): 0%
- PR (%) ([2]; 0.67 μmol/kg, 2 weeks): 60%
- CR (%) ([2]; 1.0 μmol/kg, 2 weeks): 60%
- Cures (%) ([2]; 1.0 μmol/kg, 2 weeks): 60%
- PR (%) ([2]; 1.0 μmol/kg, 2 weeks): 40%
- CR (%) ([2]; 2.0 μmol/kg, 2 weeks): 100%
- Cures (%) ([2]; 2.0 μmol/kg, 2 weeks): 100%
- PR (%) ([2]; 2.0 μmol/kg, 2 weeks): 0%
- efficacy of co-administration of EC1456 and carboplatin and paclitaxel ([2]; EC1456 1 μmol/kg BIW×2 + carboplatin 30 mg/kg BIW×2 + paclitaxel 10 mg/kg BIW×2): enhanced technical effect over EC1456 alone and the combination of carboplatin with paclitaxel
- efficacy of co-administration of EC1456 and cisplatin ([2]; EC1456 1 μmol/kg BIW×2 + cisplatin 3 mg/kg BIW×3): enhanced technical effect over both monotherapies
- efficacy of EC1456 alone compared to cisplatin ([2]; EC1456 1 μmol/kg BIW×2 vs cisplatin 3 mg/kg BIW×3): improved efficacy over cisplatin
- efficacy of co-administration of EC1456 and bevacizumab ([2]; EC1456 1 μmol/kg TIW×2 + avastin 5 mg/kg BIW×2): enhanced technical effect over both monotherapies
- efficacy of EC1456 alone compared to bevacizumab ([2]; EC1456 1 μmol/kg TIW×2 vs avastin 5 mg/kg BIW×2): improved efficacy over bevacizumab
- cures, % of the mice ([2]; EC1456 added to the carboplatin/paclitaxel combination): 100%
- PR's ([2]; EC1456 alone 1 μmol/kg twice a week for 2 weeks): 20%
- efficacy of co-administration of EC1456 and topotecan ([2]; P-1606 KB tumors, EC1456 1 μmol/kg BIW×2 + topotecan 5 mg/kg BIW×2): enhanced technical effect over both monotherapies
- efficacy of EC1456 alone compared to topotecan ([2]; P-1606 KB tumors, EC1456 1 μmol/kg BIW×2 vs topotecan 5 mg/kg BIW×2): improved efficacy over topotecan
- efficacy of co-administration of EC1456 and docetaxel ([2]; P-1609 KB tumors, EC1456 1 μmol/kg TIW×5 + docetaxel 7 mg/kg BIW×3): enhanced technical effect over both monotherapies
- efficacy of co-administration of EC1456 and topotecan ([2]; P-1609 KB tumors, EC1456 1 μmol/kg TIW×5 + topotecan 5 mg/kg TIW×5): enhanced technical effect over both monotherapies
- efficacy of EC1456 alone compared to docetaxel ([2]; P-1609 KB tumors, EC1456 1 μmol/kg TIW×5 vs docetaxel 7 mg/kg BIW×3): improved efficacy over docetaxel
- efficacy of EC1456 alone compared to topotecan ([2]; P-1609 KB tumors, EC1456 1 μmol/kg TIW×5 vs topotecan 5 mg/kg TIW×5): improved efficacy over topotecan
- efficacy of co-administration of EC1456 and carboplatin ([2]; P-1635 KB tumors, EC1456 1 μmol/kg TIW + carboplatin 50 mg/kg TIW): enhanced technical effect over both monotherapies
- efficacy of EC1456 alone compared to carboplatin ([2]; P-1635 KB tumors, EC1456 1 μmol/kg TIW×2 vs carboplatin 50 mg/kg TIW): improved efficacy over carboplatin
- specific activity mediated by the folate receptor ([2]; co-dosed with excess comparator compound EC0923 (50 or 100 μmol/kg)): competable
- anti-tumor activity / response ([2]; human KB tumors in mice, conjugated vs unconjugated drugs): dose responsive anti-tumor activity
- complete response, test animals ([2]; intravenously 1 μmol/kg TIW, 2 wk): 4/4
- In vivo activity (e) ([2]; subcutaneous KB tumor in nu/nu mice): CR
- Histopathologic changes ([3]; doses at or below the MTD): not observed
- MTD at 2 wks ([3]; female, Sprague-Dawley, rat, in vivo, iv, BIW, 2 wks): ≥ 0.51 µmol/kg
- improvement of MTD over EC0531 ([3]; i.v., BIW, 2 wks): 65%
